Reference: US20110158980A1, “METHODS TO TREAT AND SCREEN FOR AGENTS TO TREAT OBESITY” (TRUSTEES OF TUFTS COLLEGE, priority 2008, published 2011)

Assays:
Assay type in all cases: cell-based
3T3-L1 adipocytes [1] = test: Amino acid uptake or output of adipocytes (HPLC of spent medium); details: 20 mM OXA; day 12 post-induction; positive value = uptake
Method: (§1) 3T3-L1 preadipocytes were plated onto 24-well plates and expanded in preadipocyte growth medium consisting of DMEM supplemented with calf serum (10% v/v), penicillin and streptomycin. Medium was replenished every other day. Two days post-confluence, the cells were induced to differentiate using an adipogenic cocktail (1 μg/ml insulin, 0.5 mM isobutylmethylxanthine, and 1 μM dexamethasone) added to a basal medium (DMEM with 10% fetal bovine serum and penicillin/streptomycin). After 48 hrs, the first medium was replaced with a second induction medium consisting of the basal adipocyte medium supplemented with only insulin. […] This basal medium was replenished every other day during the remainder of the culture experiments.
(§2) Metabolite measurements were performed both on cell lysates and spent medium samples as described previously (Si Y, Yoon J, Lee K. American journal of physiology 2007; 292:E1637-46). Cells were lysed in situ with an 0.1% SDS buffer and sonicated. Immediately after collection, the spent medium samples were cleaned of cell debris by a brief centrifugation step. Free glycerol, TG and free fatty acids (FFAs) were measured using enzymatic assay kits (SIGMA™). Glucose and lactate concentrations were measured using the methods of Trinder (Trinder P. J Clin Pathol 1969; 22:158-61) and Loomis (Loomis M E. J Lab Clin Med 1961; 57:966-9), respectively. Amino acids were quantified by HPLC using fluorescence-based detection following pre-column derivatization of primary or secondary amines with 6-aminoquinolyl-N-hydroxysuccinimidyl-carbamate (Cohen S A, De Antonis K M. J Chromatogr A 1994; 661:25-34). All metabolite data were normalized by the corresponding cell sample DNA content, which was determined with a fluorescence-based assay using the Hoechst dye.

3T3-L1 adipocytes [2] = test: Metabolic flux analysis (stoichiometric model) of adipocyte intermediary metabolism; details: day 12 post-induction
Method: as §1
A stoichiometric model of adipocyte central carbon metabolism was constructed as described previously (Si Y, Yoon J, Lee K. American journal of physiology 2007; 292:E1637-46). The model consisted of the major pathways of central carbon metabolism (Table 1). Intracellular fluxes were estimated by solving a constrained non-linear optimization problem with stoichiometric and thermodynamic constraints (Nolan R P, Fenley A P, Lee K. Metab Eng 2006; 8:30-45).

3T3-L1 adipocytes [3] = test: Metabolite assays (TG, FFA, glucose, lactate, glycerol) on cell lysates and spent medium; details: 20 mM oxamate, day 12 post-induction
Method: as §1, §2

## NC(=O)C(=O)O [oxamate]
3T3-L1 adipocytes [1]
  ALA uptake or output: 0.6 ± 0.0 mmol/g-DNA/2 days
  ASN uptake or output: −1.1 ± 0.2 mmol/g-DNA/2 days
  ASP uptake or output: 0.0 ± 0.0 mmol/g-DNA/2 days
  GLN uptake or output: −12.0 ± 1.5 mmol/g-DNA/2 days
  GLU uptake or output: 0.4 ± 0.0 mmol/g-DNA/2 days
  GLY uptake or output: −5.9 ± 0.4 mmol/g-DNA/2 days
  HIS uptake or output: −0.2 ± 0.1 mmol/g-DNA/2 days
  ILE uptake or output: 6.1 ± 0.3 mmol/g-DNA/2 days
  LEU uptake or output: 6.8 ± 0.3 mmol/g-DNA/2 days
  LYS uptake or output: −2.0 ± 0.3 mmol/g-DNA/2 days
  MET uptake or output: 0.0 ± 0.0 mmol/g-DNA/2 days
  PHE uptake or output: −0.3 ± 0.1 mmol/g-DNA/2 days
  PRO uptake or output: −0.5 ± 0.0^ mmol/g-DNA/2 days
  SER uptake or output: 4.0 ± 0.2 mmol/g-DNA/2 days
  THR uptake or output: −1.4 ± 0.3^ mmol/g-DNA/2 days
  TYR uptake or output: −0.3 ± 0.1 mmol/g-DNA/2 days
  VAL uptake or output: 3.3 ± 0.2 mmol/g-DNA/2 days
3T3-L1 adipocytes [2]; OXA 20 mM
  Flux RXN 1 Glycolysis: Glucose + ATP = Glucose 6-P + ADP: 212.3 ± 15.3 mmol/g-DNA/2 days
  Flux RXN 2 Glycolysis: Glucose 6-P = Fructose 6-P: 205.0 ± 14.2 mmol/g-DNA/2 days
  Flux RXN 3 Glycolysis: Fructose 6-P + ATP = Glyceraldehyde 3-P + Glycerone-P + ADP: 209.9 ± 14.8 mmol/g-DNA/2 days
  Flux RXN 4 Glycolysis: Glycerone-P = Glyceraldehyde 3-P: 187.8 ± 13.9 mmol/g-DNA/2 days
  Flux RXN 5 Glycolysis: Glyceraldehyde 3-P + NAD+ + ADP + Pi = P-Enolpyruvate + ATP + H2O: 400.1 ± 28.6 mmol/g-DNA/2 days
  Flux RXN 6 Glycolysis: P-Enolpyruvate + ADP + H+ = Pyruvate + ATP: 463.5 ± 35.6 mmol/g-DNA/2 days
  Flux RXN 7 Glycolysis: Pyruvate + NADH + H+ = Lactate + NAD+: 119.2 ± 9.1 mmol/g-DNA/2 days
  Flux RXN 8 Pentose phosphate pathway: Glucose 6-P + 2 NADP+ + H2O = Ribulose 5-P + CO2 + 2 NADPH + 2 H+: 7.3 ± 4.6 mmol/g-DNA/2 days
  Flux RXN 9 Pentose phosphate pathway: 3 Ribulose 5-P = 2 Fructose 6-P + Glyceraldehyde 3-P: 2.4 ± 1.5 mmol/g-DNA/2 days
  Flux RXN 10 TCA cycle (mitochondria) (PDC): 290.4 ± 25.6 mmol/g-DNA/2 days
  Flux RXN 11 TCA cycle (mitochondria) (PC): 109.1 ± 31.7 mmol/g-DNA/2 days
  Flux RXN 12 TCA cycle (mitochondria): 185.0 ± 19.7 mmol/g-DNA/2 days
  Flux RXN 13 TCA cycle (mitochondria): 226.7 ± 26.2 mmol/g-DNA/2 days
  Flux RXN 14 TCA cycle (mitochondria): 236.0 ± 26.3 mmol/g-DNA/2 days
  Flux RXN 15 TCA cycle (mitochondria): 236.0 ± 26.3 mmol/g-DNA/2 days
  Flux RXN 16 TCA cycle (mitochondria): 181.2 ± 40.8 mmol/g-DNA/2 days
  Flux RXN 17 TCA cycle: Citrate + CoA + ATP = Acetyl-CoA + Oxaloacetate + ADP + Pi: 63.7 ± 12.9 mmol/g-DNA/2 days
  Flux RXN 18 TCA cycle: Oxaloacetate + NADH + H+ = Malate + NAD+: 0.3 ± 0.8 mmol/g-DNA/2 days
  Flux RXN 19 TCA cycle: Malate + NADP+ = Pyruvate + CO2 + NADPH: 55.2 ± 20.8 mmol/g-DNA/2 days
  Flux RXN 20 TCA cycle: Citrate + NADP+ = 2-Oxoglutarate + CO2 + NADPH + H+: 41.6 ± 9.1 mmol/g-DNA/2 days
  Flux RXN 21 TCA cycle: Oxaloacetate + ATP = P-Enolpyruvate + CO2 + ADP: 63.4 ± 12.9 mmol/g-DNA/2 days
  Flux RXN 22 Oxidative phosphorylation (NADH + 0.5 O2): 770.4 ± 108.2 mmol/g-DNA/2 days
  Flux RXN 23 Oxidative phosphorylation (FADH2 + 0.5 O2): 252.2 ± 26.4 mmol/g-DNA/2 days
  Flux RXN 24 Palmitate biosynthesis: 8.0 ± 1.6 mmol/g-DNA/2 days
  Flux RXN 25 Tripalmitoylglycerol biosynthesis: Glycerone-P + 3 Palmitate to Tripalmitoylglycerol: 22.1 ± 4.8 mmol/g-DNA/2 days
  Flux RXN 26 Tripalmitoylglycerol + 3 H2O = Glycerol + 3 Palmitate: 19.8 ± 4.4 mmol/g-DNA/2 days
  Flux RXN 27 Tripalmitoylglycerol accumulation: 2.3 ± 0.5 mmol/g-DNA/2 days
  Flux RXN 28 Metabolism of ketone bodies: 6.4 ± 0.3 mmol/g-DNA/2 days
  Flux RXN 29 Metabolism of ketone bodies: 0.0 ± 0.0 mmol/g-DNA/2 days
  Flux RXN 30 Metabolism of ketone bodies (to 3-Hydroxybutyrate): 10.8 ± 2.2 mmol/g-DNA/2 days
  Flux RXN 31 Amino acid metabolism: Pyruvate + NH4+ + NADPH = Alanine: 0.0 ± 0.0 mmol/g-DNA/2 days
  Flux RXN 32 Amino acid metabolism: Aspartate + NH4+ = Asparagine: 0.6 ± 0.1 mmol/g-DNA/2 days
  Flux RXN 33 Amino acid metabolism: Aspartate = Oxaloacetate + NH4+ + NADH: 0.0 ± 0.0 mmol/g-DNA/2 days
  Flux RXN 34 Amino acid metabolism: Cysteine = Pyruvate + NH4+ + NADH: 0.0 ± 0.0 mmol/g-DNA/2 days
  Flux RXN 35 Amino acid metabolism: Glutamate = 2-Oxoglutarate + NH4+ + NADH: 0.0 ± 0.0 mmol/g-DNA/2 days
  Flux RXN 36 Amino acid metabolism: Glutamate + NH4+ + ATP = Glutamine: 8.0 ± 1.0 mmol/g-DNA/2 days
  Flux RXN 37 Amino acid metabolism: Serine + THF = Glycine: 5.0 ± 0.3 mmol/g-DNA/2 days
  Flux RXN 38 Amino acid metabolism: Histidine + THF = Glutamate + NH4+: 4.1 ± 0.5 mmol/g-DNA/2 days
  Flux RXN 39 Amino acid metabolism: Isoleucine + 2 CoA: 6.1 ± 0.3 mmol/g-DNA/2 days
  Flux RXN 40 Amino acid metabolism: Leucine + CoA + CO2 + ATP: 6.8 ± 0.3 mmol/g-DNA/2 days
  Flux RXN 41 Amino acid metabolism: Lysine = 2-Oxoadipate + 2 NH4+ + 3 NADH: 0.0 ± 0.0 mmol/g-DNA/2 days
  Flux RXN 42 Amino acid metabolism: 2-Oxoadipate + CoA: 0.0 ± 0.0 mmol/g-DNA/2 days
  Flux RXN 43 Amino acid metabolism: Methionine + Serine + ATP + CoA + THF: 0.0 ± 0.0 mmol/g-DNA/2 days
  Flux RXN 44 Amino acid metabolism: Phenylalanine + O2 + NADH = Tyrosine: 0.0 ± 0.0 mmol/g-DNA/2 days
  Flux RXN 45 Amino acid metabolism: Glutamate + ATP + 2 NADPH = Proline: 0.0 ± 0.0 mmol/g-DNA/2 days
  Flux RXN 46 Amino acid metabolism: Serine = Pyruvate + NH4+: 0.0 ± 0.0 mmol/g-DNA/2 days
  Flux RXN 47 Amino acid metabolism: Threonine + CoA to Glycine: 0.0 ± 0.0 mmol/g-DNA/2 days
  Flux RXN 48 Amino acid metabolism: Tryptophan + 3 O2 + NADPH = 2-Oxoadipate + Alanine + CO2 + NH4+: 0.0 ± 0.0 mmol/g-DNA/2 days
  Flux RXN 49 Amino acid metabolism: Tyrosine + 2 O2: 0.0 ± 0.0 mmol/g-DNA/2 days
  Flux RXN 50 Amino acid metabolism: Valine + CoA: 3.3 ± 0.2 mmol/g-DNA/2 days
  Flux RXN 51 Plasma exchange: Palmitate: 1.0 ± 0.1 mmol/g-DNA/2 days
  Flux RXN 52 Plasma exchange: Acetoacetate: 2.4 ± 1.9 mmol/g-DNA/2 days
  Flux RXN 53 Plasma exchange: Alanine: 0.0 ± 0.0 mmol/g-DNA/2 days
  Flux RXN 54 Plasma exchange: Aspartate: 0.6 ± 0.1 mmol/g-DNA/2 days
  Flux RXN 55 Plasma exchange: Cysteine: 0.0 ± 0.0 mmol/g-DNA/2 days
  Flux RXN 56 Plasma exchange: Glutamate: 3.9 ± 0.5 mmol/g-DNA/2 days
  Flux RXN 57 Plasma exchange: Glycine: 5.0 ± 0.3 mmol/g-DNA/2 days
  Flux RXN 58 Plasma exchange: Serine: 5.0 ± 0.3 mmol/g-DNA/2 days
  Flux RXN 59 Plasma exchange: Tyrosine: 0.0 ± 0.0 mmol/g-DNA/2 days
  Flux RXN 60 Plasma exchange: O2 (calculated oxygen uptake rate): 511.3 ± 67.1 mmol/g-DNA/2 days
  Flux RXN 61 Plasma exchange: CO2: 756.9 ± 75.2 mmol/g-DNA/2 days
  Flux RXN 62 Plasma exchange: NH4+: 11.7 ± 0.5 mmol/g-DNA/2 days
  Flux RXN 63 Mitochondrial exchange: Pyruvate: 399.5 ± 40.8 mmol/g-DNA/2 days
  Flux RXN 64 Mitochondrial exchange: Malate in, Citrate out: 105.3 ± 13.9 mmol/g-DNA/2 days
  Flux RXN 65 Mitochondrial exchange: 2-Oxoglutarate in, Malate out: 41.6 ± 9.1 mmol/g-DNA/2 days
  Flux RXN 66 Mitochondrial exchange: Pi in, Malate out: 54.8 ± 20.5 mmol/g-DNA/2 days
3T3-L1 adipocytes [2]; oxamate
  Decrease of PC flux: 41%
  Decrease of citrate transport out of the mitochondria: 44%
  Decrease of de novo fatty acid synthesis: 49%
  Decrease of flux through glycolysis: 17˜26%
  Decrease of flux through the pentose phosphate pathway (PPP): 82%
  Decrease of pyruvate flux entering the TCA cycle: 21%
  Increase of lipolysis: 131%
  Increase of triglyceride synthesis: 65%
  Reduction of net triglyceride accumulation: 52%
3T3-L1 adipocytes [3]
  Glycerol output raised: 1.3 fold
  Reduction of glucose uptake: 20%
3T3-L1 adipocytes [3]; Mus musculus, 3T3-L1, vs untreated control, read-out: Inhibition of lactate output
  inhibition at 20000 µM: 40%
